Patent publication US7550603B2, “1H-benzimidazole-4-carboxamides substituted with a quaternary carbon at the 2-position are potent PARP inhibitors” (Abbott Laboratories Inc., priority 2005, dated 2009)
Read-outs that look alike come from different tables or passages of the source. Marks after values point to notes of the source that are not given here.

What was measured:
[1] = molecular target: Recombinant Human Poly(ADP-Ribose) Polymerase (PARP) (Homo sapiens, UniProt P09874); assay: Inhibition of PARP (PARP1 assay, [3H]-NAD+ / biotinylated histone H1, FlashPlate); details: read-out: PARP Inhibition Ki; Table 1; quaternary and non-quaternary compounds
Protocol: Nicotinamide[2,5′,8-3H]adenine dinucleotide and strepavidin SPA beads were purchased from Amersham Biosiences (UK) Recombinant Human Poly(ADP-Ribose) Polymerase (PARP) purified from E. coli and 6-Biotin-17-NAD^+, were purchase from Trevigen, Gaithersburg, Md. NAD^+, Histone, aminobenzamide, 3-amino benzamide and Calf Thymus DNA (dcDNA) were purchased from Sigma, St. Louis, Mo. Stem loop oligonucleotide containing MCAT sequence was obtained from Qiagen. The oligos were dissolved to 1 mM in annealing buffer containing 10 mM Tris HCl pH 7.5, 1 mM EDTA, and 50 mM NaCl, incubated for 5 min at 95° C., and followed by annealing at 45° C. for 45 minutes. […] Biotinylated histone H1 was prepared by treating the protein with Sulfo-NHS-LC-Biotin from Pierce Rockford, Ill. The biotinylation reaction was conducted by slowly and intermittently adding 3 equivalents of 10 mM Sulfo-NHS-LC-Biotin to 100 μM Histone H1 in phosphate-buffered saline, pH 7.5, at 4° C. with gentle vortexing over 1 min followed by subsequent 4° C. incubation for 1 hr. Streptavidin coated (FlashPlate Plus) microplates were purchased from Perkin Elmer, Boston, Mass.
PARP1 assay was conducted in PARP assay buffer containing 50 mM Tris pH 8.0, 1 mM DTT, 4 mM MgCl2. […] Auto reactions utilizing SPA bead-based detection were carried out in 100 μl volumes in white 96 well plates.

Female BALB/c mice = assay: Deaths following lipopolysaccharide (LPS) challenge; type: in vivo; details: 20 mg/kg LPS intravenous, monitored 72 hours
Protocol: Female BALB/c mice were dosed orally, twice a day with vehicle (0.2% HPMC), or drug at 30 mg/kg/day or 100 mg/kg/day. The mice were injected intravenous with 20 mg/kg LPS at 30 minutes after the first treatment dose. They were monitored for survival for 72 hours or until 80-90% lethality was observed.

[2] = system: peritoneum following zymosan challenge; details: peritoneal lavage four hours post zymosan (2 mg/animal)
Protocol: Compounds were administered orally before an intraperitoneal zymosan injection (2 mg/animal).

[3] = 30 mg/kg/day orally twice a day
[4] = 100 mg/kg/day orally twice a day

Chain of Recombinant Human Poly(ADP-Ribose) Polymerase (PARP) (P09874 whole entry): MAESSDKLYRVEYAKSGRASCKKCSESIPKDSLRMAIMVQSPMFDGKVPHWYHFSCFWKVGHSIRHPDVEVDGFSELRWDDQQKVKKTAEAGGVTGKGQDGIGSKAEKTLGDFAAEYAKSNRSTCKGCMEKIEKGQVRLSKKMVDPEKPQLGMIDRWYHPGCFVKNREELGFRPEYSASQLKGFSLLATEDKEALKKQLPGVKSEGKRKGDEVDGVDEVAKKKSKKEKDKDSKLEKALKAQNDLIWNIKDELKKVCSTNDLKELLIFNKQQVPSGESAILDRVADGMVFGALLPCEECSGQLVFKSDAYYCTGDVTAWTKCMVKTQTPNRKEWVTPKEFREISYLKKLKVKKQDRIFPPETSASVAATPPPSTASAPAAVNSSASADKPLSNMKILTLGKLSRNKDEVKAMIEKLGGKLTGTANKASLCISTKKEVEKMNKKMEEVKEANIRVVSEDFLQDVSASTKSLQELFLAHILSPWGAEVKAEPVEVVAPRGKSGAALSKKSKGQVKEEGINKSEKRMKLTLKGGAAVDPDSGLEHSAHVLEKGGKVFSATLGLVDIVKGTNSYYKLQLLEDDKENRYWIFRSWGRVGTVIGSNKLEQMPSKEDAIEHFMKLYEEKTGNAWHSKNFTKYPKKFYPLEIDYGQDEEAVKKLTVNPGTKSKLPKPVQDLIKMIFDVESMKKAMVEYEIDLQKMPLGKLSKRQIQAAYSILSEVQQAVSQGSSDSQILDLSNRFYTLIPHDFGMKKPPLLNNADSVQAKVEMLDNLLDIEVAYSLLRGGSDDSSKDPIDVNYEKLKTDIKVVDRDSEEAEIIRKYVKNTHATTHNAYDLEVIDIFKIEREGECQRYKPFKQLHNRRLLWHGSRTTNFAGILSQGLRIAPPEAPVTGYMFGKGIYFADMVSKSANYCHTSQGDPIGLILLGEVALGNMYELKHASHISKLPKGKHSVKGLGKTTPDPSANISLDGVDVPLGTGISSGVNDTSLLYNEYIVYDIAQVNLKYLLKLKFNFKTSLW

Row | SMILES | Ki [1] [nM] | Deaths following LPS challenge (lethality) (Female BALB/c mice; [3]) | Deaths following LPS challenge (lethality) (Female BALB/c mice; [4]) | Percent decrease in Cell Influx relative to control ([2]; 30 mg/kg orally) [%] | Percent decrease in IL-1 level relative to control ([2]; 30 mg/kg orally) [%] | Percent decrease in Cell Influx relative to control ([2]; 100 mg/kg orally) [%] | Percent decrease in IL-1 level relative to control ([2]; 100 mg/kg orally) [%*]
1 | NC(=O)c1cccc2[nH]c(C3CCN3)nc12 (stereo not shown) [2-azetidin-2-yl-1H-benzimidazole-4-carboxamide] | 34 | – | – | – | – | – | –
2 | C[C@@]1(c2nc3c(C(N)=O)cccc3[nH]2)CCCN1 [Example 4, 2-[(2S)-2-methylpyrrolidin-2-yl]-1H-benzimidazole-4-carboxamide] | – | 8/10 | 4/10* | – | – | – | –
3 | NC(=O)c1cccc2[nH]c(C3CCN(CCc4ccccc4)C3)nc12 (stereo not shown) [2-[1-(2-phenylethyl)pyrrolidin-3-yl]-1H-benzimidazole-4-carboxamide] | 9.1 | – | – | – | – | – | –
4 | CCCN1CCC(c2nc3c(C(N)=O)cccc3[nH]2)CC1 [2-(1-propylpiperidin-4-yl)-1H-benzimidazole-4-carboxamide] | – | 8/10 | 9/10 | 0 | 32 | 23 | 47
